Data reported in the supplement of paper PMC10307832.

Tests used:
Experiment in all cases: relative viability (nuclei count vs DMSO), 5 days (fraction); higher = more cells survive
TGX 221 = compound: CC1=CN2C(=O)C=C(N=C2C(=C1)C(C)NC3=CC=CC=C3)N4CCOCC4 [TGX 221]
In short: (§1)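 Five library-drug doses, separated by factors of √10, were pinned into 1536-well plates holding lung cancer cell lines after an overnight stay at 37 °C. Cells were fixed, permeabilised and Hoechst-stained in one step after 5 days without medium change, then imaged at 4×. Viability compares treated-well with vehicle-well nuclei, counted in MetaXpress, as a median across plates. Passing plates had control CV below 25% and at least one doubling.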

Ricolinostat = compound: O=C(CCCCCCNC(=O)c1cnc(N(c2ccccc2)c2ccccc2)nc1)NO [Ricolinostat]
In short: as §1

[1] = compound: C1=CC=C(C(=C1)C2=CC=C(C=C2)C3=CSC4=C3C(=C(C(=O)N4)C#N)O)O
In short: as §1

[2] = compound: C1=CC=C(C(=C1)C2=CC=C(C=C2)C3=CSC4=C3C(=C(C(=O)N4)C#N)O)O + Cc1nc(NC(=O)N2CCC[C@H]2C(N)=O)sc1-c1ccnc(C(C)(C)C(F)(F)F)c1 [Alpelisib] (partner 2 µM)
In short: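 Relative viability is defined as nuclei in treated wells over nuclei in vehicle wells. Duplicate plates were run and medians reported. Lung cancer cell lines in 1536-well plates were dosed by pin tool one day after seeding, with one drug or with a fixed anchor-drug dose plus five library-drug doses (not always all listed) in √10 steps, and nuclei were counted after 5 days.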

| Cell Line | relative viability (TGX 221; 0.08 µM) | relative viability (TGX 221; 0.253 µM) | relative viability (TGX 221; 0.8 µM) | relative viability (TGX 221; 2.53 µM) | relative viability (TGX 221; 8 µM) | relative viability (Ricolinostat; 0.08 µM) | relative viability (Ricolinostat; 0.253 µM) | relative viability (Ricolinostat; 0.8 µM) | relative viability (Ricolinostat; 2.53 µM) | relative viability ([1]; 0.08 µM) | relative viability ([1]; 0.253 µM) | relative viability ([1]; 0.8 µM) | relative viability ([1]; 2.53 µM) | relative viability ([1]; 8 µM) | relative viability ([2]; first compound 0.08 µM) | relative viability ([2]; first compound 0.253 µM) | relative viability ([2]; first compound 0.8 µM) | relative viability ([2]; first compound 2.53 µM) | relative viability ([2]; first compound 8 µM) |
| --- | --- | --- | --- | --- | --- | --- | --- | --- | --- | --- | --- | --- | --- | --- | --- | --- | --- | --- | --- |
| Calu-6 | 1.03 | 0.929 | 1.02 | 0.923 | 0.957 | 0.957 | 0.994 | 0.981 | 0.895 | 1.01 | 1.11 | 1.02 | 1.08 | 0.899 | 1.15 | 0.993 | 1.11 | 1.01 | 1.09 |
| ChaGo-K-1 | 0.904 | 0.938 | 0.987 | 0.958 | 1.04 | 0.936 | 1 | 0.921 | 0.832 | 0.785 | 1.08 | 1.01 | 1.01 | 0.809 | – | – | – | – | – |
| EBC-1 | 0.952 | 1.03 | 0.976 | 0.891 | 0.736 | 0.808 | 0.886 | 0.895 | 0.449 | 1.04 | 1.14 | 0.975 | 1.15 | 0.768 | 0.885 | 0.877 | 0.721 | 0.865 | 0.712 |
| EKVX | 0.865 | 0.888 | 0.907 | 0.838 | 0.855 | 0.764 | 0.918 | 0.907 | 0.964 | 0.961 | 1.13 | 0.971 | 0.967 | 0.851 | 0.786 | 0.995 | 0.838 | 0.953 | 0.851 |
| EMC-BAC-2 | 0.958 | 0.926 | 0.908 | 0.977 | 0.913 | 0.887 | 0.93 | 0.83 | 0.484 | 0.957 | 0.897 | 0.876 | 0.927 | 0.893 | 0.711 | 0.73 | 0.748 | 0.821 | 0.697 |
| EPLC-272H | 0.911 | 0.837 | 1.02 | 0.727 | 0.978 | 0.673 | 0.942 | 0.719 | 0.577 | 0.688 | 0.773 | 0.926 | 1 | 0.788 | – | 1.06 | 0.978 | 0.977 | 0.76 |
| H3255 | 0.946 | 0.917 | 0.93 | 0.872 | 1.01 | 0.809 | 0.911 | 0.838 | 0.783 | 0.995 | 1.09 | 0.882 | 1.01 | 0.858 | 0.799 | 0.778 | 0.68 | 0.687 | 0.563 |
| HARA | 0.997 | 0.947 | 0.964 | 0.942 | 1.05 | 0.878 | 1 | 0.866 | 0.567 | 0.768 | 1.98 | 0.999 | 0.751 | 0.856 | – | 0.84 | 0.796 | 0.932 | 0.655 |
| HCC-15 | 0.945 | 0.965 | 0.9 | 0.916 | 0.969 | 0.847 | 0.94 | 0.983 | 0.938 | 0.958 | 1.14 | 1.04 | 1.04 | 0.904 | 0.976 | 1.03 | 0.943 | 1.01 | 0.819 |
